Activity calls are given as the source filed them.
Experiments:
[1] = target: Cytochrome P450 2C19 (Homo sapiens, UniProt P33261); test: Cytochrome panel assay with activity outcomes. Panel member name: p450-cyp2c19 Compounds with AC50 equal or less than 10 uM are considered active; assay type: functional; conditions: read-out: AC50
[2] = target: Cytochrome P450 2C9 (Homo sapiens, UniProt P11712)
[3] = target: Cytochrome P450 2D6 (Homo sapiens, UniProt P10635);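 note: CYP2D6 member of a cytochrome P450 panel assay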
Sequence of Cytochrome P450 2D6 (P10635 whole entry): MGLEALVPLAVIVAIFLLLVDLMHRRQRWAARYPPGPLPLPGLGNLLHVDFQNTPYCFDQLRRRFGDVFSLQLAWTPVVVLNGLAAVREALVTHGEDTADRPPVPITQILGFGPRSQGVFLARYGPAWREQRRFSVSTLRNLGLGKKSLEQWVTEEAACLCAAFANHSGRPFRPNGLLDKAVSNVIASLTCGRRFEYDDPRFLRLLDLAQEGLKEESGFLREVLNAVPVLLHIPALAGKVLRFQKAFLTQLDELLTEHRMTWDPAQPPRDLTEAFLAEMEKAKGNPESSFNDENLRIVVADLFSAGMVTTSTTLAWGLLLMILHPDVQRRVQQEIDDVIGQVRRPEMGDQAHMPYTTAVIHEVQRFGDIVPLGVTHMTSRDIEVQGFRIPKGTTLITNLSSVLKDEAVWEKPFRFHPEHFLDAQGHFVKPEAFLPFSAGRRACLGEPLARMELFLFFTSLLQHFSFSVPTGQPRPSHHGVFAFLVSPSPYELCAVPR

[4] = target: Cytochrome P450 3A4 (Homo sapiens, UniProt P08684);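 note: CYP3A4 tested as one member of a cytochrome P450 panel screen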
Sequence of Cytochrome P450 3A4 (P08684 whole entry): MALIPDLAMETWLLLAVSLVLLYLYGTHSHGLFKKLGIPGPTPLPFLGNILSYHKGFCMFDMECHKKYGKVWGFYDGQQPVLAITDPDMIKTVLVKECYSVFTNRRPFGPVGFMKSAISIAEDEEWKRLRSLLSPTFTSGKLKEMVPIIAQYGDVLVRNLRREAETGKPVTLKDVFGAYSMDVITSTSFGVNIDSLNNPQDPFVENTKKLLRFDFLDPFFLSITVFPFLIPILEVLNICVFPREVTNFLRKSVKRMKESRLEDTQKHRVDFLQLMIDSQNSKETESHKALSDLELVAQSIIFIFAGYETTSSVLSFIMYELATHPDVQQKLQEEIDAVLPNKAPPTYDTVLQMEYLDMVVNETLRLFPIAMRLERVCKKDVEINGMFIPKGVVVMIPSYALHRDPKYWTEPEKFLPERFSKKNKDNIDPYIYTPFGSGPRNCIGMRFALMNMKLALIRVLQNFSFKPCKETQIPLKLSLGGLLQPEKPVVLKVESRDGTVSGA

[5] = target: T1, Cytochrome P450 1A2 (Homo sapiens, UniProt P05177)
T1 sequence (P05177 whole entry): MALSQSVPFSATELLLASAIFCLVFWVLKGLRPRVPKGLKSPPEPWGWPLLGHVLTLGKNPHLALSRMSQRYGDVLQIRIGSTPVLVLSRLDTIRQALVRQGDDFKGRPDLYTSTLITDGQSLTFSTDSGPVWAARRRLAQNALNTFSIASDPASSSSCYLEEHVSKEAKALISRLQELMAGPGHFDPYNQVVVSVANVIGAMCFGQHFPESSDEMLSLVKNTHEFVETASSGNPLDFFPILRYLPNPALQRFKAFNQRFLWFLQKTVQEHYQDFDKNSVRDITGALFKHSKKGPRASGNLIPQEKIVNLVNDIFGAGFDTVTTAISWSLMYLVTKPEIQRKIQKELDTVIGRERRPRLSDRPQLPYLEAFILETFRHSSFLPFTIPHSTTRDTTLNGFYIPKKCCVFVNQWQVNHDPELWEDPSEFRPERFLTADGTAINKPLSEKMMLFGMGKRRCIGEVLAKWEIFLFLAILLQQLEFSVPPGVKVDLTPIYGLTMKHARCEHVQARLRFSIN

[6] = target: Paired box protein Pax-8 (Homo sapiens, UniProt Q06710); test: PAX8 transcriptional activity inhibition in RMG-I – RMG-I cells, luciferase, cherry-pick, dose response (AID 687027); assay type: functional, cell-based;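 note: luciferase reporter driven by Pax8 target thyroperoxidase promoter measured by SteadyGlo luminescence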
Sequence of Paired box protein Pax-8 (Q06710 whole entry): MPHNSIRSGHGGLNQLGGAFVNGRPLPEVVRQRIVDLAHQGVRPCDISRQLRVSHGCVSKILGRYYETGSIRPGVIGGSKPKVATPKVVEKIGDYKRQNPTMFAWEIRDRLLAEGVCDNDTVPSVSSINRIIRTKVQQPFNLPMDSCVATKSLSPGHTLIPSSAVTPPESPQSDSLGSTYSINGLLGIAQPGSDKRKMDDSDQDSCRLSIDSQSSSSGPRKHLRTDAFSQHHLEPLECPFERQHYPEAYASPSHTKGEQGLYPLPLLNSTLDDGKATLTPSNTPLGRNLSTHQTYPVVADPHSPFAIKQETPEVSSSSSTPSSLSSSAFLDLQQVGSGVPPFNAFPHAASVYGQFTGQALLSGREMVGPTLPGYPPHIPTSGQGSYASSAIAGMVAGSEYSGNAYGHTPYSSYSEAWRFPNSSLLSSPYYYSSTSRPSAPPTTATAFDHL

Sequence of Cytochrome P450 2C19 (P33261 whole entry): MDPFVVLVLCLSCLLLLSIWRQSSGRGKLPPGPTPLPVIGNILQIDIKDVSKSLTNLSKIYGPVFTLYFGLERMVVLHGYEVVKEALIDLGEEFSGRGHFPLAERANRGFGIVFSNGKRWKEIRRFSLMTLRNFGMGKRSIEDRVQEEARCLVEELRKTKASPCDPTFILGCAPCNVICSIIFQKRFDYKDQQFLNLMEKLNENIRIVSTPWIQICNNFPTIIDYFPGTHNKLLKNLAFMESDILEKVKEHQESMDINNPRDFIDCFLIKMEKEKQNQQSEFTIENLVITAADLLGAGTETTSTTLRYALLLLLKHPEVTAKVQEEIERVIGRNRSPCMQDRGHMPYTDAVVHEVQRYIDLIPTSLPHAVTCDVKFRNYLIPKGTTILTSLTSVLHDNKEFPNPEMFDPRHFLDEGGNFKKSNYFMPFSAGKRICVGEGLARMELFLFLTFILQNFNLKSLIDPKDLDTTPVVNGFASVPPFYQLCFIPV
Sequence of Cytochrome P450 2C9 (P11712 whole entry): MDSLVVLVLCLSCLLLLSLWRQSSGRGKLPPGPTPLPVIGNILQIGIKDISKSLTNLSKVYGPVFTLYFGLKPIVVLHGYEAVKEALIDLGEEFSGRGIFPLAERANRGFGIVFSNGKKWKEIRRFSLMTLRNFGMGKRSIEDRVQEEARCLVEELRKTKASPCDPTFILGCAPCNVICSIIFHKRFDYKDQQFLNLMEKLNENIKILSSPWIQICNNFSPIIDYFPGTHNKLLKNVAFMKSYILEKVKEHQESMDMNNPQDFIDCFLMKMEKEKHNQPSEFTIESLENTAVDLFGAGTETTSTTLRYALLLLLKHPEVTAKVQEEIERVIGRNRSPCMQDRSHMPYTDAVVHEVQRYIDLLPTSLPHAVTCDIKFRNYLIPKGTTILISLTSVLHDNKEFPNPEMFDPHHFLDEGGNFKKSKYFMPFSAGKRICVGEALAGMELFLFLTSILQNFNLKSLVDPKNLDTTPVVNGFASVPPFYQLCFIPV

Compound | AC50 [1] | AC50 [2] | AC50 [3] | AC50 [5] | AC50 [6] | AC50 [4]
O=C(Oc1ccccc1)N1CCC[C@@]2(CCN(Cc3ccccc3)C2)C1 | 20 µM (inconclusive) | 20 µM (inconclusive) | 20 µM (inconclusive) | 15.8 µM (inconclusive) |  | 15.8 µM (inconclusive)
C[C@@H]1[C@H]2C=C[C@@H]1[C@@H](c1c3ccc(=O)c(O)c-3oc3c(O)c(O)ccc13)[C@@H]2C(=O)O | 3.98 µM (inconclusive) | 7.94 µM (inconclusive) |  |  |  | 
CC(C)n1nnnc1SCC(=O)NCc1ccc2c(c1)OCO2 |  | 25.1 µM (inconclusive) | 25.1 µM (inconclusive) | 12.6 µM (inconclusive) |  | 
CCCN(/C=N/c1sc2c(c1C#N)CCCCC2)CCC |  | 12.6 µM (inconclusive) | 15.8 µM (inconclusive) |  |  | 
CC1(C)OC(=O)C(/C=N/CC(O)c2ccccc2)=C(O)O1 (centres undefined) |  | 31.6 µM (inconclusive) |  | 25.1 µM (inconclusive) |  | 
Nc1nc2c(ncn2[C@@H]2O[C@H](CO)[C@@H](O)[C@H]2O)c(=S)[nH]1 [THIOGUANOSINE] |  |  |  |  | 1.16 µM (active) | 

Second part, led by results:

AC50 [1] | AC50 [2] | AC50 [3] | AC50 [5] | AC50 [6] | Compound | AC50 [4]
5.01 µM (inconclusive) | 6.31 µM (inconclusive) |  | 0.794 µM (inconclusive) |  | C[C@@H]1Oc2ccc(C(=O)C[C@@H](C(=O)O)c3ccc4c(c3)OCO4)cc2O1 | 
6.31 µM (inconclusive) | 14.1 µM (inconclusive) |  |  |  | Cc1ccc(C)c(CN2C(=O)C3CCCN3c3ccc(S(=O)(=O)N4CCOCC4)cc32)c1 (centres undefined) | 
 | 12.6 µM (inconclusive) |  |  |  | CN1CCN(c2ncc3nc(CCc4ccccc4)c(=O)n(Cc4ccc(F)cc4)c3n2)CC1 | 
 | 14.1 µM (inconclusive) |  |  |  | Cc1c(NC(=O)C2CCN(S(=O)(=O)c3ccc(Cl)cc3)CC2)c(=O)n(-c2ccccc2)n1C | 
2.24 µM (inconclusive) | 3.16 µM (inconclusive) | 5.01 µM (inconclusive) | 7.08 µM (inconclusive) |  | COc1ccc(CCNC(=O)c2nnc(O)c3ccccc23)cc1 | 7.08 µM (inconclusive)
 |  |  |  | 8.65 µM (active) | C[C@H](CO)N1C[C@H](C)[C@@H](CN(C)Cc2ccc(Cl)c(Cl)c2)OCCCC[C@H](C)Oc2ccc(NC(=O)Nc3ccccc3)cc2C1=O | 
 | 10 µM (inconclusive) |  |  |  | CCn1cc(C(=O)N/N=C(/C)c2ccc(F)cc2)c(=O)c2cc(F)c(N3CCCC3)cc21 | 
